Test system: PBMC
Test: 193 ssRNA 4mer-motif library screen: IL-12 (IL-12p40) production in PBMC of six donors, poly-L-Arg complexation, ELISA at 44 hours, IL-12 index and adjusted IL-12 index
Assay type: cell-based, human
Set-up: key to Adjusted IL-12 index Mean: IL-12 index (ratio to 9.2sense) minus donor mean, averaged over 6 donors
Conditions: 193 ssRNA oligonucleotide library; data from six individual donors summarized; ascending order
Description: FIG. 9: PBMC of six different healthy donors were isolated and stimulated with poly-L-arginine complexed ssRNA oligonucleotides in duplicates. 44 hours after stimulation IL-12p40 production was assessed in supernatant via ELISA. For all tested ssRNA oligonucleotides (table 3), the mean values of the measured duplicates were normalized to the positive control ssRNA oligonucleotide 9.2sense (5′-AGCUUAACCUGUCCUUCAA (SEQ ID NO: 194)) by dividing the mean value of tested oligonucleotide by the mean value of 9.2sense (=IL-12 index of a given oligonucleotide). Next, all individual IL-12 indices were adjusted to the mean value of all IL-12 indices by subtracting the mean value of all IL-12 indices from the individual IL-12 index of a given oligonucleotide (=adjusted IL-12 index). Data from six individual donors were summarized and were assorted in ascending order displaying the corresponding SEM (for a complete listing including numerical data see table 4). FIG. 9A discloses SEQ ID NOS 460-509, respectively, in order of appearance. FIG. 9B discloses SEQ ID NOS 510-559, respectively, in order of appearance. FIG. 9C discloses SEQ ID NOS 560-609, respectively, in order of appearance. FIG. 9D discloses SEQ ID NOS 610-652, respectively, in order of appearance.
All 193 ssRNA oligonucleotides were tested on PBMC of six individual healthy donors using poly-L-Arg for complexation. At 44 hours after stimulation with RNA oligonucleotides, supernatants were collected and IL-12 production was measured by ELISA. Prior to statistical analysis the raw data were processed as follows: for each cell culture plate the mean IL-12 value of the experimental duplicates for each tested ssRNA oligonucleotide were normalized to the ssRNA oligonucleotide RNA9.2sense (5′-AGCUUAACCUGUCCUUCAA-3′ (SEQ ID NO: 194)). This standard RNA oligonucleotide was included as a positive control on all cell culture plates. Normalization was performed by calculating the ratio of IL-12 induced by the tested oligonucleotide and IL-12 induced by the standard oligonucleotide RNA9.2sense. Thus, for each tested oligonucleotide in an individual donor a mean ratio of IL-12 induction was obtained. In the following, this mean of the ratios is referred to as IL-12 index (one value of IL-12 index per donor). […] The corresponding IL-12 index of oligonucleotide ANP175 for donor 3 was calculated to be 1.90 (=1725 pg/ml divided by 908 pg/ml).
Next, the means of all IL-12 indices for every individual donor were calculated. Then the adjusted IL-12 indices were calculated as IL-12 index minus the mean of all IL-12 indices of one individual donor. […] The adjusted IL-12 index of ANP175 was calculated: 1.90 minus 0.44=1.46. The adjusted IL-12 indices from all six donors were summarized by calculating the means and the corresponding standard error of mean. The data are depicted in ascending order (FIG. 9A, B, C, D). The adjusted IL-12 indices of the top thirty ssRNA oligonucleotides of all six donors were compared using a two-tailed Student's t-test (FIG. 10). For most combinations tested, a significant difference was observed when the interval between the analyzed pairs was at least eight or nine places in the assortment.

Row | Sequence | Adjusted IL-12 index Mean
1 | AAAAAAAAAAAAAAAAAAA (RNA, backbone not given here) [ANP-Oligo 001] | −0.48
2 | AAAAAAAACAAAAAAAAAA (RNA, backbone not given here) [ANP-Oligo 002] | −0.57
3 | AAAAAAAACACAAAAAAAA (RNA, backbone not given here) [ANP-Oligo 014] | −0.64
4 | AAAAAAAACAGAAAAAAAA (RNA, backbone not given here) [ANP-Oligo 015] | −0.65
5 | AAAAAAAACAUAAAAAAAA (RNA, backbone not given here) [ANP-Oligo 016] | −0.37
6 | AAAAAAAACCAAAAAAAAA (RNA, backbone not given here) [ANP-Oligo 005] | −0.62
7 | AAAAAAAACCCAAAAAAAA (RNA, backbone not given here) [ANP-Oligo 017] | −0.66
8 | AAAAAAAACCGAAAAAAAA (RNA, backbone not given here) [ANP-Oligo 018] | −0.68
9 | AAAAAAAACCUAAAAAAAA (RNA, backbone not given here) [ANP-Oligo 019] | −0.51
10 | AAAAAAAACGAAAAAAAAA (RNA, backbone not given here) [ANP-Oligo 006] | −0.63
11 | AAAAAAAACGCAAAAAAAA (RNA, backbone not given here) [ANP-Oligo 020] | −0.66
12 | AAAAAAAACGGAAAAAAAA (RNA, backbone not given here) [ANP-Oligo 021] | −0.63
13 | AAAAAAAACGUAAAAAAAA (RNA, backbone not given here) [ANP-Oligo 022] | 0.02
14 | AAAAAAAACUAAAAAAAAA (RNA, backbone not given here) [ANP-Oligo 007] | −0.56
15 | AAAAAAAACUCAAAAAAAA (RNA, backbone not given here) [ANP-Oligo 023] | −0.41
16 | AAAAAAAACUGAAAAAAAA (RNA, backbone not given here) [ANP-Oligo 024] | −0.48
17 | AAAAAAAACUUAAAAAAAA (RNA, backbone not given here) [ANP-Oligo 025] | −0.31
18 | AAAAAAAAGAAAAAAAAAA (RNA, backbone not given here) [ANP-Oligo 003] | −0.63
19 | AAAAAAAAGACAAAAAAAA (RNA, backbone not given here) [ANP-Oligo 026] | −0.6
20 | AAAAAAAAGAGAAAAAAAA (RNA, backbone not given here) [ANP-Oligo 027] | −0.62
21 | AAAAAAAAGAUAAAAAAAA (RNA, backbone not given here) [ANP-Oligo 028] | −0.32
22 | AAAAAAAAGCAAAAAAAAA (RNA, backbone not given here) [ANP-Oligo 008] | −0.61
23 | AAAAAAAAGCCAAAAAAAA (RNA, backbone not given here) [ANP-Oligo 029] | −0.66
24 | AAAAAAAAGCGAAAAAAAA (RNA, backbone not given here) [ANP-Oligo 030] | −0.6
25 | AAAAAAAAGCUAAAAAAAA (RNA, backbone not given here) [ANP-Oligo 031] | −0.32
26 | AAAAAAAAGGAAAAAAAAA (RNA, backbone not given here) [ANP-Oligo 009] | −0.66
27 | AAAAAAAAGGCAAAAAAAA (RNA, backbone not given here) [ANP-Oligo 032] | −0.62
28 | AAAAAAAAGGGAAAAAAAA (RNA, backbone not given here) [ANP-Oligo 033] | −0.59
29 | AAAAAAAAGGUAAAAAAAA (RNA, backbone not given here) [ANP-Oligo 034] | 2.21
30 | AAAAAAAAGUAAAAAAAAA (RNA, backbone not given here) [ANP-Oligo 010] | −0.16

From patent publication US8815503B2, “Compositions and methods for immunostimulatory RNA oligonucleotides” (Rheinische Friedrich-Wilhelms-Universitat Bonn, priority 2005, dated 2014)
